The record followed here is patent US6699877B2 (Gruenenthal GmbH, priority 2000, dated 2004).

In this test the target is T1, NMDA receptor channel (Rattus norvegicus, UniProt P35439).
T1 construct: were micro-injected with total RNA from brain tissue of adult rats; expressed in transfected cells; host or cells: Xenopus laevis oocytes injected with total RNA from adult rat brain
Nature of the test: NMDA/glycine-induced ionic currents in RNA-injected Xenopus oocytes (two-electrode voltage clamp). The class given is cell-based. As for the experimental part: NMDA/Glycine-induced Ionic Currents in RNA-injected Xenopus Oocytes
The experiment to determine functional changes in the NMDA receptor channel due to the compound according to the invention of Formula I was carried out on oocytes of the South African clawed frog, Xenopus laevis. Neuronal NMDA receptor channels were formed for this purpose after injection of RNA from rats' brain into oocytes and were measured by coapplication of NMDA and glycine-activated ionic currents.
Xenopus oocytes from stages V and VI (Dumont, J. N., Journal of Morphology, Vol. 136, 1972) were micro-injected with total RNA from brain tissue of adult rats (100-130 ng/cell) and kept in the culture medium (composition in mmol/l: 88.0 NaCl, 1.0 KCl, 1.5 CaCl2, 0.8 MgSO4, 2.4 NaHCO3, 5 HEPES, 100 IU/ml penicillin, 100 μg/ml streptomycin, pH 7.4) for up to 10 days at 20° C. Transmembranous ionic currents were recorded as in conventional two-electrode voltage clamp technology with a holding potential of −70 mV (P. Bloms-Funke P, M. Madeja, U. Muβhoff, E.-J. Speckman, Neuroscience Letters, Vol. 205, p. 115, 1996). […] To test the effects of substances brought about via the glycine B-binding site of the NMDA receptor channel, the glycine dosage/response curve was recorded with and without the respective compound according to the invention. […] The data was analyzed using Igor-Pro software (Version 3.1, WaveMetrics USA). […]

`O=C(O)C1Nc2cc(Cl)cc(Cl)c2C2C=CCC12` (centres unmarked) [Example 2, 7,9-dichloro-3a,4,5,9b-tetrahydro-3H-cyclopenta[c]quinoline-4-carboxylic Acid]: the Kb (NMDA 100 μmol/l with glycine 0-100 μmol/l, oocytes injected with rat brain RNA, read-out: NMDA/glycine-induced ionic currents pA2 value of glycine dosage/response curve (converted)) is 0.398 µM. The “Effect on the glycine dosage/response curve (FIG. 1)” value (RNA-injected oocytes, amplitude standardized to NMDA/glycine (100/10 μmol/l)) was “displacement of the glycine dosage/response curve to the right”.
